Experimental data as given in ChEMBL document CHEMBL1142190, “Development of a new methodology for screening of human immunodeficiency virus type 1 microbicides based on real-time PCR quantification” (Antimicrob Agents Chemother, 2007).

Columns and labels:
[1] = test system: Human immunodeficiency virus 1; assay: Inhibition of reverse transcriptase RTY18C mutant in HIV1 Z6gpt assessed as inhibition of ssDNA synthesis
[2] = biological target: Human immunodeficiency virus type 1 reverse transcriptase (Human immunodeficiency virus 1) (UniProt Q72547); conditions: 10 uM
Description: Inhibition of reverse transcriptase assessed as decrease in ssDNA level in cell free virion HIV1 by NERT-based real-time PCR at 10 uM

For `Cc1ccnc2c1NC(=O)c1cccnc1N2C1CC1`, which Activity [1] is on record?
The Activity was 256 µM.

And the inhibition [2]?
Its inhibition is 75%.
